This note sets out measurements from PubChem BioAssay (NCI).

Molecules are shown by their SMILES.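 Step 1: Grow cells in 96-well plates. Step 2: Expose to compound for 48 hours at 5 concentrations. Step 3: Interpolate endpoints linearly; if unreached, use highest concentration. GI50 = concentration required for 50% inhibition of growth. TGI marks complete inhibition of growth.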 A value given as a limit tells only on which side of the number the result lay.

Holding throughout (experiment): NCI anticancer screen, dose series, 48 h
Assay [1] deals with SF-539 CNS.
The subject of assay [2] is SW-620 colon.
For assay [3], the system named is SN12C renal.
The subject of assay [4] is MALME-3M melanoma.
The test system of assay [5] is OVCAR-5 ovarian.
Assay [6] concerns SNB-19 CNS.
The subject of assay [7] is UACC-257 melanoma.
The test system of assay [8] is ACHN renal.
Assay [9] deals with M14 melanoma.
Assay [10] relates to K-562 leukemia.

For `CN1CCN(CCCOc2ccc3ncnc(Nc4ccc(Oc5cccc(C(F)(F)F)c5)c(Cl)c4)c3c2)CC1`, the GI50 in [1] is 1.6 µM; in [2] it was 1.76 µM; in assay [3], 1.26 µM; in [4], 1.5 µM; in assay [5], 1.7 µM; in assay [6], 1.83 µM. Also, the GI50 was 1.82 µM in assay [7], 1.26 µM in [8], 1.87 µM in assay [9] and 1.17 µM in assay [10]. Also, the TGI in [1] was found to be 3 µM; in assay [2] it was 3.45 µM; in [3], 2.57 µM; in assay [4], 2.89 µM; in assay [5] it was 3.46 µM; in assay [6], 3.8 µM. The TGI in assay [7] turned out to be 3.75 µM; in [8] it was 2.55 µM; in [9] it was 3.87 µM; in assay [10] it was 4 µM.

With `CCCCC1Cc2cc(OC)ccc2-c2nc3cc(OC)ccc3n21` (stereo not given) (tested in a mixture with another compound), the TGI came out at 29.7 µM in [1]; 27.8 µM in assay [2]; 27.9 µM in assay [3]; 34.9 µM in [4]; 31.4 µM in assay [5]; 21.5 µM in [6]. Further, the TGI in assay [7] was found to be 29.9 µM; in assay [8] it was 28.4 µM; in assay [9], 28.2 µM; in [10], 36.8 µM.

`COc1ccc(/C=c2/[nH]c(=O)/c(=C\c3ccc(OCc4ccccc4)cn3)[nH]c2=O)cc1`: the TGI in assay [1], in [2], in [3], in [4], in [5] and in [6] was more than 100 µM throughout. Also, the TGI in assay [7], in assay [8], in [9] and in [10] was more than 100 µM each time.
